# Reference: patent US20150269307A1, “TARGET INHIBITION MAP SYSTEM FOR COMBINATION THERAPY DESIGN AND METHODS OF USING SAME” (Texas Tech University System, priority 2014, published 2015)
# Experiments:
# [1] = system: human patient-derived xenografts; test: Xenograft-derived chemical screen (Supplemental Table 3); type: cell-based; conditions: 60 agent PPTI screen
# Procedure: Three chemical screens were applied to the U23674 primary tumor cell culture. […] The target inhibition profile is a quantified description of the inhibitory properties of the compound on the numerous protein targets preset on the PPTI screen.
# To screen the chemical agents, cell cultures were plated in 384 well plates at a seeding density of 2000 cells per well over graded concentrations of the numerous compounds. The chemical concentrations were between 10 nM and […] depending on the activity range of the compounds. The cells were incubated in DMEM supplemented with 1% penicillin streptomycin, and 10% fetal bovine serum for 72 hours. Chemical sensitivity was determined by an MTS cell viability assay after the 72 hour incubation period. The sensitivity responses at the different concentrations were used to determine the chemical IC50 using a hill curve fitting algorithm with variable hill slope coefficients.
# [2] = system: DIPG neurospheres; test: BrdU based cell proliferation ELISA assay; design: species or system mouse
# Procedure: (§1) A bromodeoxyuridine (BrdU) based cell proliferation ELISA assay kit (Roche) was used for proliferation and processed according to the manufacturer's protocol. […] Viability was measured with CellTiter-Glo Luminescent Cell Viability Assay (# G7572, Promega) per manufacturer's protocol, luminescence values were obtained using Turner Biosystems Modulus Microplate luminometer (model 9300-062). All values are given as mean+/−SD of at least 3 independent experiments.
# [3] = system: DIPG neurospheres; test: cells
# Procedure: Primary cultures of DIPG neurospheres were added to 384 well plates pre-plated with 60 known drugs in an increasing gradient of concentrations. […] To complete this drug screen, primary cultures of nestin […] 53 deficient DIPG neurospheres were added to plates with 60 known drug samples in an increasing gradient of concentrations.
# [4] = target: T1, IGF-1R (Mus musculus, UniProt Q60751); test: Western blot analysis of phospho-IGF-1R after IGF-1 stimulation; type: cell-based; conditions: 4 hours of drug exposure at 1 μM and higher
# T1 construct: endogenous in cells; host or cells: murine DIPG neurospheres (Ntv-a p53 deficient, PDGF-B driven)
# T1 sequence (Q60751 31-1373): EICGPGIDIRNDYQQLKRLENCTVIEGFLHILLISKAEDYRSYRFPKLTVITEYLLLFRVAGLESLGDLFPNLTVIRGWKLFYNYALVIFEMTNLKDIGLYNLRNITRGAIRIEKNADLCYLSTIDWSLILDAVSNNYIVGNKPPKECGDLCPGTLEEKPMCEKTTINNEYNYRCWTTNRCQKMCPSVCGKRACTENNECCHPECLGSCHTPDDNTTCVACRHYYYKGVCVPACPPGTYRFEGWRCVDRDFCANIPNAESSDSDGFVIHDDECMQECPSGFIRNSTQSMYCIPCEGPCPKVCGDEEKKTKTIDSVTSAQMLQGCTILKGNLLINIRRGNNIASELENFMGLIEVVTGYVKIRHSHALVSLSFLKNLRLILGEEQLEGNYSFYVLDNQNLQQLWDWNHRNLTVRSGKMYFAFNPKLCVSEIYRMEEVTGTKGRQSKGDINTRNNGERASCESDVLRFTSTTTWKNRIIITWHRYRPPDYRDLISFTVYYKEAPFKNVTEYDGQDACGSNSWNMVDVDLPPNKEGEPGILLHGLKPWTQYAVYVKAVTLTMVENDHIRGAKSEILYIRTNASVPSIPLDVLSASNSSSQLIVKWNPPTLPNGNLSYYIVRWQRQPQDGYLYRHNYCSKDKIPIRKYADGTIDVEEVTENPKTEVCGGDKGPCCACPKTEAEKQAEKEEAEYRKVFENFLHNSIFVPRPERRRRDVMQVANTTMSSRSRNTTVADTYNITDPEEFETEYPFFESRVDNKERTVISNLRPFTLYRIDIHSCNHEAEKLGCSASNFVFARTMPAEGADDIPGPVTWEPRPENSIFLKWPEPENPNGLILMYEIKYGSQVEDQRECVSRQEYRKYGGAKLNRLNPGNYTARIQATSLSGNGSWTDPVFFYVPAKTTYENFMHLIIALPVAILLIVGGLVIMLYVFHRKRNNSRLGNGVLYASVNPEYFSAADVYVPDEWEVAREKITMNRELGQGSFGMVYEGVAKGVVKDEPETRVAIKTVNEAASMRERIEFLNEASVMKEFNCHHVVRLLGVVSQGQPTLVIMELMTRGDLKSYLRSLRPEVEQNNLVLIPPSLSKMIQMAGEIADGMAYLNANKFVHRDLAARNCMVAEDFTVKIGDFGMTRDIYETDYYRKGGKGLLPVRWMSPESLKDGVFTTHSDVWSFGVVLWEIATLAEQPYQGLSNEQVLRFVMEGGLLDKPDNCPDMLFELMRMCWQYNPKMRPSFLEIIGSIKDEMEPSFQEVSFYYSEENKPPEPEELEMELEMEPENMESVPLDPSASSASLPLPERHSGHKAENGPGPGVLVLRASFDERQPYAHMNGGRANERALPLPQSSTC
# Procedure: (§2) IGF-1R ligand was added at 10 nmol/L concentration for 15 minutes prior to cell collection. […] Protein concentrations of total cell lysates or total tissue lysates were determined using BCA assay kit (Pierce). Lysates were resolved by SDS-PAGE (Invitrogen) and transferred to nitrocellulose membranes (Bio-Rad Laboratories). […] All antibodies were purchased from Cell Signaling except Actin, which was purchased from Santa Cruz Biotech. Membranes were incubated with the appropriate labeled secondary antibodies, and protein was visualized and quantified using Li-Cor Biosciences Odyssey Infrared Imaging system (Li-Cor Biosciences). Inhibition was calculated by comparing the ratio of phosphorylation signals in untreated versus treated samples after normalization to actin. All values are given as mean+/−SD of at least 3 independent experiments.
# [5] = system: U23674 cells; test: Four-arm orthotropic allograft study, survival; type: in vivo, mouse; conditions: 50 mg/kg OSI-906, 150 mg/kg GDC-0941, oral gavage; compared to vehicle and other arms
# Procedure: This engraftment was performed after damaging the right leg via cardiotoxin as previously described. Treatment commenced two days after engraftment. Dosing schedule was once daily by oral gavage up to day 5, at which time dosing was performed every other day. The endpoint for the study and survival analysis was tumor volume=1.4 cc.
# [6] = system: DIPG neurospheres; test: Cellular viability assay (CellTiter-Glo Luminescent Cell Viability Assay); type: cell-based, mouse; conditions: 48 hours
# Procedure: as §1
# [7] = system: AKT; test: Western blot analysis of phospho-Akt after IGF-1 stimulation; type: cell-based, mouse; conditions: 4 hours of drug exposure at 1 μM and higher
# Procedure: as §2
smiles,measurement,setting,value
C[C@]1(O)C[C@@H](c2nc(-c3ccc4ccc(-c5ccccc5)nc4c3)c3c(N)nccn32)C1 [OSI-906],IC50 Value,[1],>conc tested
same,concentration giving significant inhibition of proliferation,[2],≥ 1 µM
same,IC50,"[2]; Mus musculus, 48 hours, BrdU assay",2500 nM
same,IC50,"[3]; 48 h, read-out: In Vitro Absolute IC50",1740 nM
same,viability at 10 µM,[3]; read-out: cell viability (cytocidal),< 15%
same,reduction in pIGF-1R,[4],73%
same,survival of mice (endpoint tumor volume 1.4 cc),[5],no better than survival of mice only treated with vehicle
same,concentration giving significant reduction of viability,[6],≥ 1 µM
same,IC50,"[6]; Mus musculus, CellTiter-Glo, read-out: IC50, viability / cytotoxic effects",2400 nM
same,reduction in pAKT expression,[7],69%
